Reference: patent US8575148B2, “Spiro azepane-oxazolidinones as Kv1.3 potassium channel blockers” (Abbott Healthcare Products B.V., priority 2008, dated 2013)

Target: T1, voltage gated potassium channel Kv1.3 (Homo sapiens, UniProt P22001)
T1 construct: expressed in transfected cells; host or cells: CHO cells
Assay: In vitro inhibition of Kv1.3 potassium channels (Rb efflux, atomic absorption)
Type: cell-based
Conditions: CHO cells over-expressing Kv1.3, Rb efflux after depolarization, triplicate; for inhibition at 10 µM: 10^−5 M, read-out: percentage Kv1.3 inhibition at 10^−5M
Description: In vitro inhibition of Kv1.3 potassium channels: the assay was used to determine the permeability of potassium ion channels expressed in the cell membrane. […] Adherent CHO cells over-expressing the voltage gated potassium channel Kv1.3 were loaded with Rb. Depolarization of the cells leads to opening of the potassium channels and to efflux of Rb through the potassium channels. Thus, the Rb concentration in the supernatant is proportional to the potassium ion channel permeability. To identify potassium channel blockers, cells were incubated with compounds before depolarization. A reduction of Rb in the supernatant indicated the presence of a potassium ion channel blocker. The Rb concentration in the supernatant was measured using an Atomic Absorption Spectrometer.
CHO cells expressing either Kv1.3, Kv1.5 or hERG ion channels were cultured at 37° C./5% CO2. Prior to the experiment cells were seeded in 96 well plates (Corning, N.Y., USA) and cultured for 24 h. Medium was discarded and replaced by 100 μl Rb buffer (10 mM HEPES pH 7.4, 5 mM Glucose, 5 mM RbCl, 140 mM NaCl, 2 mM CaCl2, 1 mM MgSO4) per well. After 4 h incubation the cells were washed three times with low potassium buffer (10 mM HEPES pH 7.4, 5 mM Glucose, 5 mM KCl, 140 mM NaCl, 2 mM CaCl2, 1 mM MgSO4). Compounds were dissolved in 75 μl low potassium buffer and added to the cells. After 12 minutes cells were depolarized by adding […] high potassium buffer (10 mM HEPES pH 7.4, 5 mM Glucose, 145 mM KCl, 2 mM CaCl2, 1 mM MgSO4), followed by additional 15 minutes of incubation. The supernatant was transferred in a 96 well plate and the Rb concentration was measured using a ZEEnit Atomic Absorption Spectrometer (Analytik Jena, Germany). By comparing control vs. depolarized w/o compound, the ion channel inhibition was determined. Measurements were done in triplicate.

T1 sequence (P22001 whole entry): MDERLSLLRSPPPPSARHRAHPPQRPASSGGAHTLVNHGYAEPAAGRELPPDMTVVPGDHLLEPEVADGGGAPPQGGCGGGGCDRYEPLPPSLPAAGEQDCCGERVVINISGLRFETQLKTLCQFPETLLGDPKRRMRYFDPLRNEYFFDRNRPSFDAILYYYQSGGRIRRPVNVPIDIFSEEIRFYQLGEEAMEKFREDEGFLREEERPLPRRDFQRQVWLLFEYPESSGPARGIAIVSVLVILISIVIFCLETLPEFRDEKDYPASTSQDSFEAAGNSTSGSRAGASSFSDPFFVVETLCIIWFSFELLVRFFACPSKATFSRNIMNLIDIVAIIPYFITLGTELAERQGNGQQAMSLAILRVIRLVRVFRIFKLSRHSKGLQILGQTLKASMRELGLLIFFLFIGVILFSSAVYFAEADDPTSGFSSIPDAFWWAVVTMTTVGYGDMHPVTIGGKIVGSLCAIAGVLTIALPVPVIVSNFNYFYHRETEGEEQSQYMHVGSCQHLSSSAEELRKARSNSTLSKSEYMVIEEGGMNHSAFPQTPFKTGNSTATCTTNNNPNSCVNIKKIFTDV

| SMILES | percentage Kv1.3 inhibition at 10^−5M [%] | inhibition at 10 µM [%] |
| --- | --- | --- |
| C[C@H](c1ccccc1)N1CC2(CCCN(C(=O)c3cc(C(F)(F)F)cc(C(F)(F)F)c3)CC2)OC1=O (stereo partly drawn) [Compound 31, 8-(3,5-trifluoromethyl-benzoyl)-3-[(R)-1-phenyl-ethyl]-1-oxa-3,8-diazaspiro[4.6]undecan-2-one] | 64 | – |
| C[C@H](c1ccccc1)N1C[C@@]2(CCCN(C(=O)c3cc(C(F)(F)F)cc(C(F)(F)F)c3)CC2)OC1=O [Compound 32, (5S)-8-[3,5-bis(trifluoromethyl)benzoyl]-3-[(1R)-1-phenylethyl]-1-oxa-3,8-diazaspiro[4.6]-undecan-2-one] | – | 99 |
| C[C@@H](c1ccccc1)N1C[C@@]2(CCCN(C(=O)c3cc(C(F)(F)F)cc(C(F)(F)F)c3)CC2)OC1=O [Compound 29, (5S)-8-[3,5-bis(trifluoromethyl)benzoyl]-3-[(1S)-1-phenylethyl]-1-oxa-3,8-diazaspiro[4.6]-undecan-2-one] | – | 100 |
| C[C@@H](c1ccccc1)N1C[C@]2(CCCN(C(=O)c3cc(C(F)(F)F)cc(C(F)(F)F)c3)CC2)OC1=O [Compound 30, (5R)-8-[3,5-bis(trifluoromethyl)benzoyl]-3-[(1S)-1-phenylethyl]-1-oxa-3,8-diazaspiro[4.6]-undecan-2-one] | – | 75 |
